Measured values published in patent publication US8609713B2, “Pyrrole derivatives and their methods of use” (AbbVie Inc., priority 2006, dated 2013).

Biological target: α7 nAChRs (Homo sapiens, UniProt P36544)
Test: High-throughput calcium flux (FLIPR) assay using IMR-32 cells expressing endogenous α7 nAChRs
Method: (i) High-Throughput Calcium Flux Assays Using Cells Expressing Endogenous α7 nAChRs
Any suitable selective α7 agonist can be used.
IMR-32 neuroblastoma cells (ATCC) were grown to confluency in 162 cm^2 tissue culture flasks in minimum essential media supplemented with 10% FBS and 1 mM sodium puruvate, 0.1 mM non-essential amino acids and 1% antibiotic-antimycotic. The cells were then dissociated using cell dissociation buffer and 40 μl of 3.5×10^5 cells/ml cell suspension was plated (˜15,000 cells/well) into black plates with clear bottom and maintained for 48 hours in a tissue culture incubator at 37° C. under an atmosphere of 5% CO2: 95% air. […] Calcium flux was measured using calcium-3 assay kit (Molecular Devices, Sunnyvale, Calif.) or fluo-4. […] Fluorescence measurements were read simultaneously from all the wells by a Fluorometic Imaging Plate Reader (FLIPR) at an excitation wavelength of 480 nm and an emission wavelength of 520 nm. Baseline fluorescence was measured for the first 10 seconds, at which point 5× concentrations of modulator/test compounds were added to the cell plate and incubated for three minutes. The fluorescence intensity was captured every second for the first 1 minute followed by every 5 seconds for an additional 2 minutes. […]

α7 nAChRs, sequence (P36544 23-502): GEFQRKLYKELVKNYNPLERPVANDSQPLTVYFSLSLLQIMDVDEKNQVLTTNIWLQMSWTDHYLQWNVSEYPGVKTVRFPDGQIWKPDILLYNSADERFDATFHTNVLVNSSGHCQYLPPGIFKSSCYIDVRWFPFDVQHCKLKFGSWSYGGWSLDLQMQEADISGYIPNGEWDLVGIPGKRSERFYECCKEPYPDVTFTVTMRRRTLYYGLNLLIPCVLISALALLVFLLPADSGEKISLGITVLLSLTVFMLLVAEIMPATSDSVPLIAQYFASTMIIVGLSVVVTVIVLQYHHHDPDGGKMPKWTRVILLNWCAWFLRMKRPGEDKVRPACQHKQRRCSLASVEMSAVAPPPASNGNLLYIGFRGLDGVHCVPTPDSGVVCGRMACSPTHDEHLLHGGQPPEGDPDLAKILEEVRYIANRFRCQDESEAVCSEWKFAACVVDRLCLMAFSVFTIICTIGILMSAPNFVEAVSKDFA

Compound: CN1CC2CN(c3ccc(-c4ccccc4)nn3)CC2C1 (centres unmarked)
- calcium response, agonist alone (absence of allosteric modulator, FIG. 3): did not trigger calcium responses

Compound: CCN1C[C@]2(COC(=O)c3ccccc3N3C(=O)C[C@H](C)C3=O)CC[C@H](OC)[C@@]34[C@@H]5C[C@H]6[C@H](OC)[C@@H]5[C@](O)(C[C@@H]6OC)[C@@](O)([C@@H](OC)[C@H]23)[C@@H]14 [methyllycaconitine]
- effect of α7 selective antagonist on the agonist plus modulator calcium response: abolished response
